Results taken from patent US20260207777A1, “IMPROVED PEPTIDE INHIBITORS OF P53 BINDING PROTEIN 53BP1” (KAMAU THERAPEUTICS, INC., priority 2022, published 2026).

Legend:
CD34+ HSPCs [1] = experiment: editing of CD34+ HSPCs with purified i53 variant proteins and HBB-UBC-GFP AAV donor; flow cytometry; format: cell-based, human; details: for increase in levels of GFP integration over control edited cells: HBB-UBC-GFP AAV MOI 2500
Experimental: (§1) Chemically-modified single guide RNAs (sgRNAs) used to edit CD34+ HSPCs at the HBB locus were purchased from Synthego. The sgRNA sequences were modified by adding 2′-O-methyl-3′-phosphorothioate at the three terminal nucleotides of the 5′ and 3′ ends. The target sequence for the HBB sgRNA is as follows: HBB: 5′[…]-3′ (SEQ ID NO: 74). Cas9 protein (SpyFi Cas9) was purchased from Aldevron. The RNPs were complexed at a Cas9:sgRNA molar ratio of 1:2.5 at 25° C. for 10-15 min prior to electroporation. Cells were collected, counted, and pelleted at 180 g×7 min. The cell pellets were resuspended in Maxcyte buffer with complexed RNPs and electroporated using a Maxcyte EXPERT ATx Nucleofector. After electroporation cells were plated at 3.5×10^5 cells/mL in media supplemented with cytokines and the desired AAV donor added at 5.0×10^2-2.5×10^4 vector genomes/cell. 24 h after nucleofection, cells were spun down, washed once with media, and seeded into AAV-free media at a density of 3.5×10^5 cells/mL.
(§2) CD34+ HPSCs were edited with protein variants 3 days post thaw and were harvested 2 days post nucleofection for NGS analysis or 3-5 days post nucleofection for GFP expression analysis. Editing reactions with proteins at a given concentration were repeated in duplicate or triplicate (either using the same CD34+ HSPC donor or across multiple donors).
Rates of targeted integration of the HBB UBC GFP donor were measured using a Beckman Coulter CytoFLEX. DAPI (Miltenyi Biotec) was used to discriminate live and dead cells. Flow cytometry data were analyzed using FlowJo 10 software.

CD34+ HSPCs [2] = experiment: editing of CD34+ HSPCs with purified i53 variant proteins and HBB-SNP AAV donor; NGS of editing outcomes; format: cell-based, human; details: for increase in levels of HDR corrected alleles over control edited cells: FIG. 13; for increase in levels of HDR corrected alleles over DM: L67R/L67H value is the average of both
Experimental: as §1, §2
24 h after nucleofection, cells were spun down, washed with media, and seeded into AAV and DNAPKi-free media at a density of 3.5×10^5 cells/mL.
The frequency of homology directed repair (HDR) and other editing outcomes at HBB were measured using Next Generation Sequencing (NGS). An NGS assay was developed to determine the frequency of at the HBB locus by quantifying the total number of alleles that have been either: (1) not edited (% WT), (2) changed by HDR to incorporate sequence differences present in the AAV repair template (% HR), or (3) mutated during the genome correction process resulting in a gene that produces mutant β-globin (% INDELs).
For this assay, genomic DNA was harvested from cells using a Quick-DNA 96 Plus Kit (Zymo Research). The DNA concentration was measured using a Qubit 1×dsDNA BR assay kit (ThermoFisher). Purified genomic DNA was then used to amplify the HBB locus via polymerase chain reaction (PCR). The PCR products were diluted using nuclease-free water to serve as the template DNA for targeted NGS library prep. A second PCR with primers carrying partial Illumina adapters was performed to amplify a 142 base pair sequence that includes the region of the HBB locus that is to be corrected during the genome correction process. The PCR products were diluted again to serve as templates in a third PCR reaction using Nextera XT index primers. This third PCR reaction was used to assign unique identifiers to each sample and to add the full length adapter sequences necessary for Illumina sequencing. The size of the PCR products was assessed on an Agilent BioAnalyzer. PCR products were then pooled, purified using a Qiagen PCR purification kit, and quantified using PicoGreen in order to ready the PCR products for sequencing.
Based on the PicoGreen concentration, the library of pooled PCR products was diluted to a final concentration of 4 nM. Sequencing was performed on a MiSeq system using an Illumina MiSeq sequencing reagent kit (V2, 300 cycles). A 10% PhiX control library was added to the sample library to improve sequence diversity and to allow for error rate measurements. The library was denatured and loaded at […] onto the sequencing reagent cartridge. The sequencing entails paired-end 150 base pair reads and dual indexing reads. The sequencing data was demultiplexed based on the sample indexes provided and FASTQ files for each sample are generated.
The FASTQ files were processed using the CRISPResso2 pipeline^3. The data was reported as % WT, % corrected by HR, and % INDELs. […]

CD34+ HSPCs [3] = experiment: editing at the off-target editing site OT-1 (NGS-based analysis); format: cell-based, human; details: protein 0.8 mg/mL
Text: Editing outcomes at the off-target (OT) editing site OT-1 can be assessed using an assay very similar to the one described above for measuring the targeted integration of HBB-SNP. The off-target editing site was identified via three different methods (in silico prediction,^13 Circle-Seq,^14 and Guide-Seq^15) and was confirmed to be off-target editing site of significance via amplicon sequencing. The workflow for the OT-1 amplicon sequencing assay is very similar to the on-target sequencing assay but involves one less PCR step. A small 166 base pair sequence encompassing the OT-1 editing site is amplified directly from genomic DNA in the first PCR and then tagged with barcode and adapter sequences in a second PCR. The resulting PCR products are sized, quantified, and prepared for sequencing in the same manner as for the HBB on-target sequencing assay. The sequencing data is also processed using the Crispresso2 pipeline,^3 but in contrast to the on-target sequencing assay no homology direct repair outcomes are present at OT-1, only % WT and % INDELs are reported.

[4] = test system: HDR-mediated integration of a donor sequence; experiment: i53 as protein-based additive, enhancement of HDR-mediated integration of a donor sequence (data not shown); format: cell-based; details: 1.5 mg/mL purified i53 in nucleofection solution, relatively inconsistent results
53BP1 Tudor domain = 53BP1 Tudor domain (Homo sapiens, UniProt Q12888); details: previously reported; mutants relative to i53; cited from earlier work
Chain of 53BP1 Tudor domain (Q12888 1484-1603 limits assumed): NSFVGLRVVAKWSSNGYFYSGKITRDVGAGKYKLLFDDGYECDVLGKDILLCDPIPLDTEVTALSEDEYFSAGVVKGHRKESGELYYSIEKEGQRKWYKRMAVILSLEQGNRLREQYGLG

53BP1 = 53BP1 (Homo sapiens, UniProt Q12888); details: transiently expressed in cells; cited from earlier work
Chain of 53BP1 (Q12888 whole entry): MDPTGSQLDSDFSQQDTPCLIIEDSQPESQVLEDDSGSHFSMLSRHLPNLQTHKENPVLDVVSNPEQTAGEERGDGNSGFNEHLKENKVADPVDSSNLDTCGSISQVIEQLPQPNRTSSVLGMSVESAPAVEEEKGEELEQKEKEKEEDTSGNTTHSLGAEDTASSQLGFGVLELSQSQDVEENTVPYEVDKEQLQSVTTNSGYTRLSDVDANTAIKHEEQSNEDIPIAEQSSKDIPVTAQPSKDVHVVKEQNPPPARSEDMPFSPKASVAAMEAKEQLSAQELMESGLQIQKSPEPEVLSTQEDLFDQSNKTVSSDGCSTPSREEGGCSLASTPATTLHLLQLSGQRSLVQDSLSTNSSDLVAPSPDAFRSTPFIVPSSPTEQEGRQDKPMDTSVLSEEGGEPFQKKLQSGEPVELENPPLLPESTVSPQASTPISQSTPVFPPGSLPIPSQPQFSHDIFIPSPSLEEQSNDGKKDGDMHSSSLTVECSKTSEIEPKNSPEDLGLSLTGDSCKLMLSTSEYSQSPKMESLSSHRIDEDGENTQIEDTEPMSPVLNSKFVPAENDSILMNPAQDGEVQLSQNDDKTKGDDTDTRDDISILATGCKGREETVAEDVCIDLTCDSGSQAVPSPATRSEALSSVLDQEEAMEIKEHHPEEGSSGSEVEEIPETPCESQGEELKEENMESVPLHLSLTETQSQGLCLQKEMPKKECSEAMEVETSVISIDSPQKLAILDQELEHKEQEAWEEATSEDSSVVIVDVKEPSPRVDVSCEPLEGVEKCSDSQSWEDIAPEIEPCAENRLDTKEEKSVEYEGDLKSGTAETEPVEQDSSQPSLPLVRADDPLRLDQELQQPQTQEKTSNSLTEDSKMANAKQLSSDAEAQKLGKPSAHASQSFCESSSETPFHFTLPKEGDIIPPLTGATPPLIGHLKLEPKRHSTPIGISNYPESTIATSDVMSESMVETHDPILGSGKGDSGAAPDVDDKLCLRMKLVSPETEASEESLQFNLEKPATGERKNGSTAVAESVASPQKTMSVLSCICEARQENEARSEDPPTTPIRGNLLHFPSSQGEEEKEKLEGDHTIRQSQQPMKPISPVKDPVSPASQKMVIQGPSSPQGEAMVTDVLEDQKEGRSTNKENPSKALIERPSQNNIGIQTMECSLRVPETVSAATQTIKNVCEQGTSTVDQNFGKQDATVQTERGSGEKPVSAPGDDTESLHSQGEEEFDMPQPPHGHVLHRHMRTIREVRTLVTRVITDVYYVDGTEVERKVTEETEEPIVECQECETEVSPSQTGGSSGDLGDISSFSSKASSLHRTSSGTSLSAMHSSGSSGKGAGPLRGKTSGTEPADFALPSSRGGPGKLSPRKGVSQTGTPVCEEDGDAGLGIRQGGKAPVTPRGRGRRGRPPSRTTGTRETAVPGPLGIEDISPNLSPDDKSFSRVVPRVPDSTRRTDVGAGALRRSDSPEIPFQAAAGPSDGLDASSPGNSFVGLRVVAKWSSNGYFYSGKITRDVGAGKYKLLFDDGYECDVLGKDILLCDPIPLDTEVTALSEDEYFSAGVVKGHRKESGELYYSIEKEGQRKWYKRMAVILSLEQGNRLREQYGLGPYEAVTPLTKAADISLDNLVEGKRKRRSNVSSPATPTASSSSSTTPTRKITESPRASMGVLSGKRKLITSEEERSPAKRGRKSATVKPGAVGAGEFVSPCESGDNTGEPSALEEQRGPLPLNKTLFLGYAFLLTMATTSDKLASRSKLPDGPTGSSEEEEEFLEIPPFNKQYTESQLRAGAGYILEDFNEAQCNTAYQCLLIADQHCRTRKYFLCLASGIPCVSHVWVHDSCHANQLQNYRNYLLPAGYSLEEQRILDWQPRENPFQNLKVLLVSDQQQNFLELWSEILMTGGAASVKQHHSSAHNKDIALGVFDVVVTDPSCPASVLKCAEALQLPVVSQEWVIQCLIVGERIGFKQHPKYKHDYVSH

Substance: i53: engineered ubiquitin variant, known inhibitor of 53BP1, selectively binds the Tudor domain of 53BP1 [reference compound]
- increase of % HDR over DM (CD34+ HSPCs [1]; HBB-UBC-GFP AAV MOI 1250, protein 0.4 mg/mL, GFP integration in live cells, L67R/L67H value is the average of both): 19%
- increase in levels of GFP integration over control edited cells (CD34+ HSPCs [1]; protein 0.1 mg/mL): 5%
- increase in levels of GFP integration over control edited cells (CD34+ HSPCs [1]; protein 0.2 mg/mL): 18%
- increase in levels of GFP integration over control edited cells (CD34+ HSPCs [1]; protein 0.4 mg/mL): 29%
- increase in levels of GFP integration over control edited cells (CD34+ HSPCs [1]; protein 0.8 mg/mL): 45%
- increase in levels of HDR corrected alleles over control edited cells (CD34+ HSPCs [2]; MOI 312.5, protein 0.1 mg/mL): 18%
- increase in levels of HDR corrected alleles over control edited cells (CD34+ HSPCs [2]; MOI 312.5, protein 0.2 mg/mL): 24%
- increase in levels of HDR corrected alleles over control edited cells (CD34+ HSPCs [2]; MOI 312.5, protein 0.4 mg/mL): 45%
- increase in levels of HDR corrected alleles over control edited cells (CD34+ HSPCs [2]; MOI 2500, protein 0.1 mg/mL): 3%
- increase in levels of HDR corrected alleles over control edited cells (CD34+ HSPCs [2]; MOI 2500, protein 0.2 mg/mL): 5%
- increase in levels of HDR corrected alleles over control edited cells (CD34+ HSPCs [2]; MOI 2500, protein 0.4 mg/mL): 18%
- levels of HDR corrected alleles (normalized by total edited alleles), dose response (CD34+ HSPCs [2]; FIG. 26, protein 0.2, 0.4 and 0.8 mg/mL, MOIs 312.5 and 2500): decrease significantly as the protein concentrations decreased
- increase in levels of HDR corrected alleles over DM (CD34+ HSPCs [2]; HBB-SNP AAV MOI 312.5, protein 0.4 mg/mL): 14%
- increase in levels of HDR corrected alleles over DM (CD34+ HSPCs [2]; HBB-SNP AAV MOI 2500, protein 0.4 mg/mL): 15%
- frequency of INDELS at the off-target editing site OT-1 (CD34+ HSPCs [3]): not significantly increase
- increases in HDR-mediated integration of a donor sequence [4]: 10-20%
- binding to the 53BP1 Tudor domain (53BP1 Tudor domain): selectively bind
- recruitment of 53BP1 to DSBs (53BP1): block recruitment of 53BP1 to DSBs
